# Data as given in patent US8895504B2, “Amylin derivatives” (priority 2008, dated 2014).
# *1 amine or outer side, *2 acyl side, *3 side chain or, on linkers, in order; H or OH if unused. Where a SMILES comes first, the peptide text is derived from it. Bridges are numbered along the chain shown (N, C = ends). The star is where a group is joined. C20 diacid = O=C(O)CCCCCCCCCCCCCCCCCCC(=O)*; C18 diacid = O=C(O)CCCCCCCCCCCCCCCCC(=O)*; γGlu = O=C(O)[C@H](CCC(=O)[*:2])N[*:1]; AEEA = NCCOCCOCC(=O)O
# Biological target: T1, Amylin 3(a) receptor (human calcitonin receptor (CTa) and RAMP-3) (Homo sapiens, UniProt O60896+P30988)
# T1 construct: expressed in transfected cells; host or cells: BHK570 cells, stably transfected with a CRE-luciferase reporter
# T1 sequence (O60896 24-148): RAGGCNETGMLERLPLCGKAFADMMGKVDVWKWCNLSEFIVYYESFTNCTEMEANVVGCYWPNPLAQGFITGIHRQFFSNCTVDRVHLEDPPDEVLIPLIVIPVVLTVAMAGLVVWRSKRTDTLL
# T1 sequence (P30988 25-474): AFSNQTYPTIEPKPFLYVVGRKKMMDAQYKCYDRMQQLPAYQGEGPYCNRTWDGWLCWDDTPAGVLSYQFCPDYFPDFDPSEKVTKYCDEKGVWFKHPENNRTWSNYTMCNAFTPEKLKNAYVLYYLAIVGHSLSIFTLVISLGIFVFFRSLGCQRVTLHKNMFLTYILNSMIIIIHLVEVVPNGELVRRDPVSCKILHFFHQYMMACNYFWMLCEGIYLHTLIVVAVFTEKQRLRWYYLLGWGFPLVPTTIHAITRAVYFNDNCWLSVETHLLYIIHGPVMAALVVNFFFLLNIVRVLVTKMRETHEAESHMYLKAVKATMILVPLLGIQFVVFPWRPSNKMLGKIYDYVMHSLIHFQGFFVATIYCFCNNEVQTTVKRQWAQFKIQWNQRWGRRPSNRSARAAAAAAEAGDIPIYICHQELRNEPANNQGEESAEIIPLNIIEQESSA
# Assay: Luciferase assay (III), BHK Amylin 3(a)//CRE-luc cells
# Assay type: cell-based
# Details: BHK cells with Amylin 3(a) receptor and CRE luciferase reporter, 4 hours incubation; read-out: Potency Luciferase
# Procedure, shortened: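 BHK570 cells stably expressing CTa, RAMP-3 and a CRE-luciferase reporter, seeded at about 20,000 cells/well and grown overnight. Cells were exposed to standard or sample for 4 h at 37° C in phenol red-free DMEM with 10% FBS and 10 mM Hepes, pH 7,4. Luminescence was read after 30 min LucLite at room temperature.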
row,SMILES,EC50 [nM]
1,"CC[C@H](C)[C@H](NC(=O)[C@@H]1CCCN1C(=O)CNC(=O)[C@H](Cc1ccccc1)NC(=O)[C@H](CC(N)=O)NC(=O)[C@H](CC(N)=O)NC(=O)[C@H](CO)NC(=O)[C@H](CO)NC(=O)[C@H](Cc1c[nH]cn1)NC(=O)[C@H](Cc1c[nH]cn1)NC(=O)[C@H](CC(C)C)NC(=O)[C@H](Cc1ccccc1)NC(=O)[C@H](CC(N)=O)NC(=O)[C@H](C)NC(=O)[C@H](CC(C)C)NC(=O)[C@H](CCCNC(=N)N)NC(=O)[C@H](CCC(N)=O)NC(=O)[C@@H](NC(=O)[C@H](C)NC(=O)[C@@H]1CSSC[C@H](NC(=O)CC[C@H](NC(=O)CCCCCCCCCCCCCCCCCCC(=O)O)C(=O)O)C(=O)N[C@@H](CC(N)=O)C(=O)N[C@@H]([C@@H](C)O)C(=O)N[C@@H](C)C(=O)N[C@@H]([C@@H](C)O)C(=O)N1)[C@@H](C)O)C(=O)N[C@@H](CC(C)C)C(=O)N1CCC[C@H]1C(=O)N1CCC[C@H]1C(=O)N[C@H](C(=O)N[C@@H](CC(=O)O)C(=O)N[C@H](C(=O)NCC(=O)N[C@@H](CO)C(=O)N[C@@H](CC(N)=O)C(=O)N[C@H](C(=O)N[C@@H](Cc1ccc(O)cc1)C(N)=O)[C@@H](C)O)C(C)C)[C@@H](C)O [Example 53, N-alpha-[(S)-4-Carboxy-4-(19-carboxynonadecanoylamino)butyryl]-[His17,Asp31]-pramlintide (2-37)] ({C20 diacid-γGlu}-CNTATCATQRLANFLHHSSNNFGPILPPTDVGSNTY-NH2; disulfide 1-6)",0.06
2,"CC[C@H](C)[C@H](NC(=O)[C@@H]1CCCN1C(=O)CNC(=O)[C@H](Cc1ccccc1)NC(=O)[C@H](CC(N)=O)NC(=O)[C@H](CC(N)=O)NC(=O)[C@H](CO)NC(=O)[C@H](CO)NC(=O)[C@H](Cc1c[nH]cn1)NC(=O)[C@H](Cc1c[nH]cn1)NC(=O)[C@H](CC(C)C)NC(=O)[C@H](Cc1ccccc1)NC(=O)[C@H](CC(N)=O)NC(=O)[C@H](C)NC(=O)[C@H](CC(C)C)NC(=O)[C@H](CCCNC(=N)N)NC(=O)[C@H](CCC(N)=O)NC(=O)[C@@H](NC(=O)[C@H](C)NC(=O)[C@@H]1CSSC[C@H](NC(=O)[C@H](CCCNC(=N)N)NC(=O)[C@H](Cc2c[nH]cn2)NC(=O)[C@H](CCCNC(=N)N)NC(=O)[C@H](CCC(=O)O)NC(=O)CC[C@H](NC(=O)CCCCCCCCCCCCCCCCCCC(=O)O)C(=O)O)C(=O)N[C@@H](CC(N)=O)C(=O)N[C@@H]([C@@H](C)O)C(=O)N[C@@H](C)C(=O)N[C@@H]([C@@H](C)O)C(=O)N1)[C@@H](C)O)C(=O)N[C@@H](CC(C)C)C(=O)N1CCC[C@H]1C(=O)N1CCC[C@H]1C(=O)N[C@H](C(=O)N[C@@H](CC(N)=O)C(=O)N[C@H](C(=O)NCC(=O)N[C@@H](CO)C(=O)N[C@@H](CC(N)=O)C(=O)N[C@H](C(=O)N[C@@H](Cc1ccc(O)cc1)C(N)=O)[C@@H](C)O)C(C)C)[C@@H](C)O [Example 69, N-alpha-[(S)-4-Carboxy-4-(19-carboxynonadecanoylamino)butyryl]-Glu-Arg-His-[Arg1,His17]-pramlintide] ({C20 diacid-γGlu}-ERHRCNTATCATQRLANFLHHSSNNFGPILPPTNVGSNTY-NH2; disulfide 5-10)",0.1
3,"CC[C@H](C)[C@H](NC(=O)[C@@H]1CCCN1C(=O)CNC(=O)[C@H](Cc1ccccc1)NC(=O)[C@H](CC(N)=O)NC(=O)[C@H](CC(N)=O)NC(=O)[C@H](CO)NC(=O)[C@H](CO)NC(=O)[C@H](Cc1c[nH]cn1)NC(=O)[C@H](Cc1c[nH]cn1)NC(=O)[C@H](CC(C)C)NC(=O)[C@H](Cc1ccccc1)NC(=O)[C@H](CC(N)=O)NC(=O)[C@H](C)NC(=O)[C@H](CC(C)C)NC(=O)[C@H](CCCNC(=N)N)NC(=O)[C@H](CCC(N)=O)NC(=O)[C@@H](NC(=O)[C@H](C)NC(=O)[C@@H]1CSSC[C@H](NC(=O)COCCOCCNC(=O)COCCOCCNC(=O)CC[C@H](NC(=O)CCCCCCCCCCCCCCCCC(=O)O)C(=O)O)C(=O)N[C@@H](CC(N)=O)C(=O)N[C@@H]([C@@H](C)O)C(=O)N[C@@H](C)C(=O)N[C@@H]([C@@H](C)O)C(=O)N1)[C@@H](C)O)C(=O)N[C@@H](CC(C)C)C(=O)N1CCC[C@H]1C(=O)N1CCC[C@H]1C(=O)N[C@H](C(=O)N[C@@H](CC(N)=O)C(=O)N[C@H](C(=O)NCC(=O)N[C@@H](CO)C(=O)N[C@@H](CC(N)=O)C(=O)N[C@H](C(=O)N[C@@H](Cc1ccc(O)cc1)C(N)=O)[C@@H](C)O)C(C)C)[C@@H](C)O [Example 62, N-alpha-[2-(2-{2-[2-(2-{2-[(S)-4-Carboxy-4-(17-carboxyheptadecanoylamino)butyrylamino]ethoxy}ethoxy)acetylamino]ethoxy}ethoxy)acetyl][His17]-pramlintide (2-37)] ({C18 diacid-γGlu-AEEA-AEEA}-CNTATCATQRLANFLHHSSNNFGPILPPTNVGSNTY-NH2; disulfide 1-6)",0.04
4,"CC[C@H](C)[C@H](NC(=O)[C@@H]1CCCN1C(=O)CNC(=O)[C@H](Cc1ccccc1)NC(=O)[C@H](CC(N)=O)NC(=O)[C@H](CCC(N)=O)NC(=O)[C@H](CO)NC(=O)[C@H](CO)NC(=O)[C@H](Cc1c[nH]cn1)NC(=O)[C@H](Cc1c[nH]cn1)NC(=O)[C@H](CC(C)C)NC(=O)[C@H](Cc1ccccc1)NC(=O)[C@H](CC(N)=O)NC(=O)[C@H](C)NC(=O)[C@H](CC(C)C)NC(=O)[C@H](CCCNC(=N)N)NC(=O)[C@H](CCC(N)=O)NC(=O)[C@@H](NC(=O)[C@H](C)NC(=O)[C@@H]1CSSC[C@H](NC(=O)[C@H](CCCNC(=N)N)NC(=O)[C@H](Cc2c[nH]cn2)NC(=O)[C@H](Cc2c[nH]cn2)NC(=O)[C@H](CCC(=O)O)NC(=O)CC[C@H](NC(=O)CCCCCCCCCCCCCCCCCCC(=O)O)C(=O)O)C(=O)N[C@@H](CC(N)=O)C(=O)N[C@@H]([C@@H](C)O)C(=O)N[C@@H](C)C(=O)N[C@@H]([C@@H](C)O)C(=O)N1)[C@@H](C)O)C(=O)N[C@@H](CC(C)C)C(=O)N1CCC[C@H]1C(=O)N1CCC[C@H]1C(=O)N[C@H](C(=O)N[C@@H](CC(N)=O)C(=O)N[C@H](C(=O)NCC(=O)N[C@@H](CO)C(=O)N[C@@H](CC(N)=O)C(=O)N[C@H](C(=O)N[C@@H](Cc1ccc(O)cc1)C(N)=O)[C@@H](C)O)C(C)C)[C@@H](C)O [Example 63, N-alpha-[(S)-4-Carboxy-4-(19-carboxynonadecanoylamino)butyryl]-GluHis-His-[Arg1,His17,Gln21]-pramlintide] ({C20 diacid-γGlu}-EHHRCNTATCATQRLANFLHHSSQNFGPILPPTNVGSNTY-NH2; disulfide 5-10)",0.1
